Assay results from patent US11648223B2, “Receptor subtype and function selective retinoid and rexinoid compounds in combination with immune modulators for cancer immunotherapy” (Io Therapeutics, Inc., priority 2016, dated 2023).

Experiments:
[1] = system: Th17 cell; assay: in vitro Th17 cell differentiation from naive T cells; format: cell-based, mouse; settings: in vitro assay
Protocol: (§1) To determine whether a RARα selective agonist could affect T cell differentiation, T cells were incubated with a RARα selective agonist to determine its effect on Foxp3 expression. Naive CD4^+ […] cells were purified from a Foxp3-GFP mouse using flow cytometry by sorting and isolating based upon a GFP^+ phenotype. These cells were activated polyclonally with αCD3 in vitro in the presence of IL-2 and TGF-β. These cells were then cultured in media with various concentrations of compound 5183 (a RARα selective agonist) and the expression of FoxP3-GFP was analyzed by flow cytometry. The RARα selective agonist compound 5183 enhanced differentiation of immunosuppressive Treg cells and inhibited differentiation of inflammatory TH17 cells from naëve T cells in vitro (Table 2).

[2] = system: Treg cell; assay: in vitro Treg cell differentiation from naive CD4+ T cells (FoxP3-GFP, flow cytometry); format: cell-based, mouse; settings: in vitro assay
Protocol: as §1

[3] = system: CD4+ T cells; assay: in vivo T cell differentiation in mice (FoxP3 expression in CD4+ T cells of blood and spleen); parameters: species or system mouse; settings: in vivo assay
Protocol: To expand on the finding above, the in vivo effects of a RARα selective agonist on T cell differentiation was evaluated in a mouse model. Mice were treated with 100 μg of compound 5183 (a RARα agonist) or an equivalent volume of DMSO (vehicle control) every other day for 10 days. Lympocytes from the blood and spleen were then isolated and FoxP3 expression in CD4^+ T cells was assessed.

[4] = system: B16F10 tumor cells; assay: B16F10 melanoma engrafted C57BL/6 mice, survival; format: in vivo
Protocol: The anti-tumor effects of anti-CTLA-4 antibody treatment combined with 10 nM […] agonist (AGN204647 (IRX4647)) are examined in C57BL/6 mice engrafted with B16F10 tumor cells.

[5] = system: FoxP3+ Treg cells; assay: formation of FoxP3+ Treg cells (FIG. 3); format: cell-based
[6] = system: Th 17 cells; assay: formation of Th17 cells (FIG. 3); format: cell-based
[7] = combination with anti-CTLA-4 antibody

In the case of CCOc1c(Br)cc(C(=O)Nc2ccc(C(=O)O)cc2)cc1C(=O)c1ccc(C)cc1 [AGN196996], the Th17 cell numbers [1] was “increases Th17 cell numbers”, the Treg cell numbers [2] was “decreases Treg cell numbers” and the Th17 cell numbers [3] was “increases Th17 cell numbers”. For the same compound, the Treg cell numbers [3] was “decreases Treg cell numbers”.

For CC1(C)CCC(C)(C)c2cc(C(/C=C/c3cccc(C(=O)O)c3)=N/O)ccc21 [AGN204647], the “survival rate at 50 days” value ([4]; agent alone, vehicles only 0%) was 30%, the “survival at 50 days” value ([4]; combination of anti-CTLA-4 antibody and 10 nM RARγ agonist AGN204647) was 100% and the “resistance of surviving mice to tumor re-challenge” value [4, 7] was “resistant to re-challenge with twice the dose of live tumor cells”. The toxicity [4, 7] was “without signs of acute or delayed toxicity”.

With CC(/C=C/[C@@H]1C[C@]1(C)c1ccc2c(c1)C(C)(C)CCC2(C)C)=C\C(=O)O [IRX4204] the “formation of FoxP3+ Treg cells” value [5] was “promotes the formation of FoxP3+ Treg cells” and the “formation of Th 17 cells” value [6] was “inhibits the formation of Th 17 cells”.
